# Test results reported in patent publication US8097440B1, “Engineered microorganisms capable of producing target compounds under anaerobic conditions” (Gevo, Inc., priority 2008, dated 2012).
# Residue numbers refer to the chain shown, from its start.
# How the values were obtained:
# [1] = molecular target: T1, E. coli KARI Ec_IlvC variant Ec_IlvC^B8A71S-his6 (Q110V, S78D, A71S), SEQ ID NO: 29 (Escherichia coli, UniProt P05793, A71S/Q110V/S78D); assay: KARI cuvette assay, purified Ec_IlvC^B8A71S-his6; assay type: biochemical
# T1 sequence (P05793 with tags, fused parts or gaps A71S/S78D/Q110V): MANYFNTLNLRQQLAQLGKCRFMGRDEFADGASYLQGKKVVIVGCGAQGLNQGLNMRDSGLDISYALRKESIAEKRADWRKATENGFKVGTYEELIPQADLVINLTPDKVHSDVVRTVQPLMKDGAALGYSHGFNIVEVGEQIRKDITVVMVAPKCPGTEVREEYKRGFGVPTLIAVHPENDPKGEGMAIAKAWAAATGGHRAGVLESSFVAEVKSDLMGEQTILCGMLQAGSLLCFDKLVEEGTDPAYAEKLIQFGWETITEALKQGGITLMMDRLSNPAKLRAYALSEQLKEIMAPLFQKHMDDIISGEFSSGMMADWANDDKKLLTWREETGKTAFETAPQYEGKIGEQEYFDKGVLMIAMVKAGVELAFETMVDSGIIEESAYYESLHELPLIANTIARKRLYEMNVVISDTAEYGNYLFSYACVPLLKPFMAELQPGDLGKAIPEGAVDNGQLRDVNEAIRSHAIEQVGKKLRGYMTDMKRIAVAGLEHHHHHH
# Description: (§1) KARI cuvette assay: KARI activity was assayed kinetically by monitoring the decrease in NAD(P)H concentration by measuring the absorbance at 340 nm. A reaction buffer was prepared containing 250 mM potassium phosphate pH 7, 1 mM DTT and 10 mM MgCl2. Cell pellets were resuspended (0.25 g wet weight/mL buffer) in 250 mM potassium phosphate (KPi) buffer containing 1 mM DTT and 10 mM MgCl2. The resuspended cells were lysed by sonication for 1 min with a 50% duty cycle and pelleted at 11000×g and 4° C. for 15 min. A reaction mixture consisting of 910 μl reaction buffer, 50 μl acetolactate, and 20 μl lysate was prepared in a cuvette. The reaction was initiated by addition of 20 μL of 10 mM NAD(P)H. A substrate free control was conducted using reaction buffer without the addition of acetolactate.
# Purification of KARI: Cell pellets used for purification were resuspended in purification buffer A (20 mM Tris, 20 mM imidazol, 100 mM NaCl, 10 mM MgCl2, pH 7.4). KARI was purified by IMAC (Immobilized metal affinity chromatography) over a 1 ml Histrap High Performance (histrap HP) column pre-charged with Nickel (GE Healthcare) using an Akta FPLC system (GE Healthcare). […]
# [2] = molecular target: T2, Escherichia coli KARI (ketol-acid reductoisomerase) Ec_IlvC^his6, wild type IlvC (SEQ ID NO: 13) with his6-tag, SEQ ID NO: 15 (Escherichia coli, UniProt P05793); assay: KARI cuvette assay, purified Ec_IlvC^his6 (parent / wild type); assay type: biochemical, E. coli; settings: relative to Ec_IlvC^his6 with NADPH
# T2 sequence (P05793 with tags, fused parts or gaps): T1 sequence (P05793 with tags, fused parts or gaps A71S/S78D/Q110V) with S71A, D78S, V110Q
# Description: as §1, with “The reaction was initiated by addition of 20 μL of 10 mM NAD(P)H. A substrate free control was conducted using reaction buffer without the addition of acetolactate.” left out
# Only 20% of the enzymes of the recombination library were active on NADH. After screening 1,000 clones using the NADH depletion assay at 340 nm, 26 KARI variants were selected for a rescreen by the high-throughput assay described in Example 14 and eight thereof were expressed in 25 ml LBamp medium in shake flasks according to the protocol for cell growth and protein expression in shake flasks as described in Example 14, purified according to the protocol for purification of KARI enzymes as described in Example 14, and NAD(P)H depletion at 340 nm was measured again. […] The KM values of variants Ec_llvC^2H10-his6 and Ec_llvC^6E6-his6 were measured and the catalytic efficiencies were calculated.
smiles,measurement,setting,value
"NC(=O)C1=CN([C@@H]2O[C@H](COP(=O)(O)OP(=O)(O)OC[C@H]3O[C@@H](n4cnc5c(N)ncnc54)[C@H](O)[C@@H]3O)[C@@H](O)[C@H]2O)C=CC1 [NADH, nicotinamide adenine dinucleotide]",kcat/KM,"[1]; purified, acetolactate as substrate",38330 M⁻¹ s⁻¹
same,(kcat/KM with NADH)/(kcat/KM of Ec_IlvC^his6 with NADPH),[1]; relative to Ec_IlvC^his6 with NADPH,44%
same,(kcat/KM with NADH)/(kcat/KM of Ec_IlvC^his6 with NADPH),[2],1%
